{"source": "BindingDB's records for PubMed 9536007", "about": "(University of Bonn, 1998)", "note": "Values joined by “and” are separate entries in the source; they are usually repeats but may differ in a detail not shown here. Identical values can stand only once. Counter-ions that a name gives are not always drawn.", "data": [{"molecular_target": "Nischarin (Rattus norvegicus, UniProt Q4G017)", "sequence (Q4G017 whole entry)": "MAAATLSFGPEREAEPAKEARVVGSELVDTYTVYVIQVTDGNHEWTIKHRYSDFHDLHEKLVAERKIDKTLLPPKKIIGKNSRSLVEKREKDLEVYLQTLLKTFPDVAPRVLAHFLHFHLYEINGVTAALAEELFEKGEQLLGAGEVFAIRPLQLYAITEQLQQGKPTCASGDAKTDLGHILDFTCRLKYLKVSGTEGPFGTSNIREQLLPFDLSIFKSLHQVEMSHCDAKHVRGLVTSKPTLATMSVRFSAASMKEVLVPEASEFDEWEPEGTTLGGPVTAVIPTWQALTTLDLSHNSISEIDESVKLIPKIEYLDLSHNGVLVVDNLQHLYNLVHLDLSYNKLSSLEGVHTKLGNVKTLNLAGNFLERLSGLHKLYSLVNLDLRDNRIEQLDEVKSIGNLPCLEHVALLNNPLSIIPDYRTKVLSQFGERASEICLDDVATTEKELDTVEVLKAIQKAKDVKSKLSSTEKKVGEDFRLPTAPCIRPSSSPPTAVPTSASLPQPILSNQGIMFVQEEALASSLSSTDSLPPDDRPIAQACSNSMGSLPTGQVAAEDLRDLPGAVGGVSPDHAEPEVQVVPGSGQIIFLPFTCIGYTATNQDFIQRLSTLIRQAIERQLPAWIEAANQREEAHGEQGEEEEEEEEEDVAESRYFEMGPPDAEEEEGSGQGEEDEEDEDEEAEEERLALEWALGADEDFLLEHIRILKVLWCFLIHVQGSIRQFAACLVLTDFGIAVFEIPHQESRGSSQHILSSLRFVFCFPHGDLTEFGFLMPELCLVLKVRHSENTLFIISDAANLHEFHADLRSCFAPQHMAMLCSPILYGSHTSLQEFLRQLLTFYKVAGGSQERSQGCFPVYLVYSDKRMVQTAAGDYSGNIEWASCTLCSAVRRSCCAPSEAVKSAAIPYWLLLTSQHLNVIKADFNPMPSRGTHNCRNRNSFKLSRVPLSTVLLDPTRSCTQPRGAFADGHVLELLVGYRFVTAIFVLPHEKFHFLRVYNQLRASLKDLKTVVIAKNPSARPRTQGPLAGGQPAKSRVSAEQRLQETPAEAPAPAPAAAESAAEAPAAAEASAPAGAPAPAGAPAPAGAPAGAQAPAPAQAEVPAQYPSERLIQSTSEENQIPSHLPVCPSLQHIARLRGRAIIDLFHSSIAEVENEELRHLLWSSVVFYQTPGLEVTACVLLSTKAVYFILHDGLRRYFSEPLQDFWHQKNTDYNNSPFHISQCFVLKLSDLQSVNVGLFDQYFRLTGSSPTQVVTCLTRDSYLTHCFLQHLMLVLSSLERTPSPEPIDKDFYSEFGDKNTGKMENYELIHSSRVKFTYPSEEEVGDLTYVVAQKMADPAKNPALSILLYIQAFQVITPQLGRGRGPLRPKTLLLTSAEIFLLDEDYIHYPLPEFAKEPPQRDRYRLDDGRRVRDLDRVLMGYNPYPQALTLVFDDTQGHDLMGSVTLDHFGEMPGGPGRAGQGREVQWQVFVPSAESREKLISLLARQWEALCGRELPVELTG", "values": [{"smiles": "CN/C([CH-][N+](=O)[O-])=[NH+]\\CCSCc1ccc(CN(C)C)o1", "Ki": "> 10 µM"}, {"smiles": "N=C(N)NCCCCN", "Ki": "> 10 µM"}, {"smiles": "Clc1cccc(Cl)c1N=C1NCCN1", "note": "[2-(2,6-dichloroanilino)-2-imidazoline]", "Ki": "2.52 µM and > 10 µM"}, {"smiles": "O=C(CCCN1CCC(O)(c2ccc(Cl)cc2)CC1)c1ccc(F)cc1", "note": "[4-[4-(4-Chloro-phenyl)-4-hydroxy-piperidin-1-yl]-1-(4-fluoro-phenyl)-butan-1-one;propionate(HCl)]", "Ki": "0.5 µM"}, {"smiles": "COc1nc(C)nc(Cl)c1N=C1NCCN1", "note": "[(4-Chloro-6-methoxy-2-methyl-pyrimidin-5-yl)-imidazolidin-2-ylidene-amine]", "Ki": "> 10 µM"}, {"smiles": "C[C@]12NC(Cc3ccccc31)c1ccccc12", "note": "[(5S,10S)-(+)-5-methyl-10,11-dihydro-5Hdibenzo[a,d]cyclohepten-5,10-imine]", "Ki": "> 10 µM"}, {"smiles": "Cc1ccccc1NC(=N)Nc1ccccc1C", "note": "[CAS_97-39-2]", "Ki": "0.93 µM"}, {"smiles": "CCCN1CCC[C@@H](c2cccc(O)c2)C1", "note": "[Preclamol]", "Ki": "> 10 µM"}, {"smiles": "CC(C)=CCN1CC[C@@]2(C)c3cc(O)ccc3C[C@@H]1[C@@H]2C", "note": "[Talwin]", "Ki": "> 10 µM"}, {"smiles": "NCCc1c[nH]cn1", "note": "[[3H]histamine]", "Ki": "> 10 µM"}, {"smiles": "COC(=O)[C@@H]1[C@H]2C[C@H]3c4[nH]c5ccccc5c4CCN3C[C@@H]2CC[C@@H]1O", "note": "[yohimbic acid methyl ester]", "Ki": "> 10 µM"}]}]}
